Series [1] relates to maximal electroshock seizures in mice. As to the kind of experiment: Anti-electroshock convulsion activity (maximal electroshock seizures, method of Goodman et al.). Particulars: 2 hours after oral administration, n = 8, 25 mA, 0.25 sec. The series is classed as in vivo. The method, then:
The effects of the representative compounds of the present invention on maximal electroshock seizures in mice were determined by the method of Goodman et al. [Goodman L. S., Singh Grewal M., Brown W. C. and Swinyard E. A., J. Pharmacol, Exp. Ther., 108, 168-176 (1953)]. At 2 hours after oral administration of test compounds, current (25 mA, 0.25 sec.) was delivered to animals with an electroshock device (made by Unique Medical).
On the technique in general: The maximal electroshock test induces tonic seizures with an electrical stimulus.

Series [2] concerns metrazol-induced convulsive death. As to the kind of experiment: Anti-metrazol activity (metrazol-induced convulsive death). The series is classed as in vivo. Particulars: oral doses of 20 to 80 mg/kg, male STD-ddY mice. The source says:
(a) Anti-metrazol activity of the compounds of the present invention was examined in male STD-ddY mice.

Series [3] deals with mortality induced by potassium cyanide. Put plainly: Anti-hypoxic activity (mortality induced by potassium cyanide). The series is classed as in vivo. Particulars: 10 to 20 mg/kg, p.o., male STD-ddY mice.
Series [4] is described as follows: Acute toxicity (oral LD50). Particulars: mouse, in vivo, mice. The source says: (c) Acute toxicity of the compounds of the present invention was relatively low.

One may read the LD50 as the dose at which mortality reaches 50%. A high value points to a less toxic substance.

In the case of `O=C(Nc1cc(C(F)(F)F)cc(C(F)(F)F)c1)[C@H]1CCCC[C@H]1C(=O)O` (relative stereo) [Compound A, cis-2-[(3,5-bistrifluoromethyl)-phenyl-aminocarbonyl]-cyclohexane carboxylic acid], the “Inhibition (%) of tonic extension” value in series [1] (10 mg/kg p.o.) came out at 25%; in series [1] (20 mg/kg p.o.), 50%; in series [1] (40 mg/kg p.o.), 100%; in series [1] (80 mg/kg p.o.) it was 100%; in series [1] (320 mg/kg p.o.) it was 100%. The “antagonism against metrazol-induced convulsive death” value in series [2] is listed as “dose-dependent antagonism”. Moreover, the “anti-hypoxic activity (antagonism against mortality induced by potassium cyanide)” value in series [3] is “potent anti-hypoxic activity”. In series [4], this compound showed an LD50 of 1000 to 2000 mg/kg.

`O=C(O)[C@@H]1CCCC[C@H]1C(=O)Nc1cc(C(F)(F)F)cc(C(F)(F)F)c1` (relative stereo) [Compound B, trans-2-[(3,5-bistrifluoromethyl)-phenyl-aminocarbonyl]-cyclohexane carboxylic acid]: the “Inhibition (%) of tonic extension” value in series [1] (80 mg/kg p.o.) came out at 0%; in series [1] (320 mg/kg p.o.) it was 100%.

Regarding `O=C(Nc1cc(C(F)(F)F)cc(C(F)(F)F)c1)[C@H]1CC=CC[C@H]1C(=O)O` (relative stereo) [Compound C, cis-6-[(3,5-bistrifluoromethyl-phenyl)-aminocarbonyl]-3-cyclohexene carboxylic acid], the “Inhibition (%) of tonic extension” value in series [1] (10 mg/kg p.o.) was found to be 12.5%; in series [1] (20 mg/kg p.o.) it was 100%; in series [1] (40 mg/kg p.o.), 100%; in series [1] (80 mg/kg p.o.) it was 100%; in series [1] (320 mg/kg p.o.) it was 100%. The “antagonism against metrazol-induced convulsive death” value in series [2] was “dose-dependent antagonism”. In addition, the “anti-hypoxic activity (antagonism against mortality induced by potassium cyanide)” value in series [3] is given as “potent anti-hypoxic activity”. In addition, the LD50 in series [4] was 1000 to 2000 mg/kg.

For `O=C(Nc1cc(C(F)(F)F)cc(C(F)(F)F)c1)[C@@H]1[C@@H]2CC[C@@H](C2)[C@@H]1C(=O)O` (relative stereo) [Compound E, cis-endo-3-[(3,5-bistrifluoromethyl-phenyl)-aminocarbonyl]-bicyclo-(2,2,1)-heptane-2-carboxylic acid], the “Inhibition (%) of tonic extension” value amounted to 0% in series [1] (80 mg/kg p.o.) and 100% in series [1] (320 mg/kg p.o.).

Regarding `CC1CC[C@H](C(=O)O)[C@H](C(=O)Nc2cc(C(F)(F)F)cc(C(F)(F)F)c2)C1` (relative stereo) [Compound F, cis-2-[(3,5-bistrifluoromethyl-phenyl)-aminocarbonyl]-4(5)-methyl-cyclohexane carboxylic acid], the “Inhibition (%) of tonic extension” value in series [1] (40 mg/kg p.o.) was 50%; in series [1] (80 mg/kg p.o.), 100%; in series [1] (320 mg/kg p.o.), 100%.

As for `O=C(O)C1=C(C(=O)Nc2cc(C(F)(F)F)cc(C(F)(F)F)c2)CCCC1` [Compound D, 2-[(3,5-bistrifluoromethyl-phenyl)-aminocarbonyl]-1-cyclohexenecarboxylic acid], the figures for the “Inhibition (%) of tonic extension” value in series [1] (80 mg/kg p.o.) and in series [1] (320 mg/kg p.o.) were 0% and 100%, respectively.

Regarding `O=C1C2CCCCC2C(=O)N1c1cc(C(F)(F)F)cc(C(F)(F)F)c1` (stereo not drawn) [Compound G, N-(3,5-bistrifluoromethylphenyl)-cyclohexane-1,2-dicarboximide], the “Inhibition (%) of tonic extension” value in series [1] (40 mg/kg p.o.) was 25%; in series [1] (80 mg/kg p.o.), 100%; in series [1] (320 mg/kg p.o.), 100%.

As for `O=C1C2CC=CCC2C(=O)N1c1cc(C(F)(F)F)cc(C(F)(F)F)c1` (stereo not drawn) [Compound H, N-(3,5-bistrifluoromethylphenyl)-4-cyclohexene-1,2-dicarboximide], the “Inhibition (%) of tonic extension” value was found to be 50% in series [1] (80 mg/kg p.o.) and 87.5% in series [1] (320 mg/kg p.o.).

The record behind these values is patent publication US4661630A, “Carboxylic acid amides and their derivatives” (Eisai Co., Ltd., priority 1982, dated 1987).
